# Test results as given in US9573887B2, “Naphthalene derivative” (Daito Chemix Corporation, priority 2010, dated 2017).
# Counter-ions that a name gives are not always drawn.
# Molecular target: T1, Mouse VCP (Mus musculus, UniProt Q01853)
# T1 construct: histidine tag (N); made in house; host or cells: Sf-9 insect cells (baculovirus vector pVL1392)
# Assay: ATPase activity of purified His-tagged VCP, [γ-32P]ATP, liberated phosphate by liquid scintillation
# Type: biochemical
# Settings: compounds of Comparative Examples; determined in the same manner as the Examples
# Description: In one aspect, the effect of VCP regulators for regulating ATPase activity is determined, for example by the following exemplary assay. Mouse VCP cDNA (the amino acid sequence is completely identical among mouse, rat and human) is added with a DNA sequence corresponding to a histidine tag at the amino-terminal, subcloned into a baculovirus vector pVL1392 (BD Bioscience), and expressed in Sf-9 insect cells. The protein is purified with a nickel column. After the purification the concentration of the protein is adjusted to 0.25-0.5 μg/ml and the protein is stored in a solution containing 50 mM TrisCl pH 8.0, 5 mM EDTA, 10% glycerol, and 15 mM DTT at 4° C. 500 ng of the purified VCP is mixed with 100 μM [γ-^32P]ATP (18.5 GBq/mmol) and the test substance in 20 μL of ATPase buffer (20 mM HEPES (pH7.4), 50 mM KCl, 5 mM MgCl2, 15 mM DTT), and incubated at 37° C. for 10 minutes. The enzyme reaction is stopped with addition of 200 μL of an ice-cold solution containing 7% TCA and 1 mM K2HPO4. 50μ of a solution containing 3.75% ammonium molybdate and 0.02M tungstate silicic/3 N H2SO4 is added, followed by 300 μL of n-butylacetic acid, and then the liberated phosphate is extracted into the organic layer. The reaction tube is centrifuged for 5 minutes at 20,000 g to separate the aqueous layer and the organic layer, 200 μL of the organic layer is taken, and the beta ray radiated from the liberated phosphate is quantified with liquid scintillation counter. By measuring the ATPase activity in the presence of the test substance at various concentrations, ATPase inhibitory activity of the test substance is measured.
# Mouse VCP cDNA was added with a DNA sequence corresponding to histidine tag at the amino-terminal, subcloned into a baculovirus vector pVL1392 (BD Bioscience), and expressed in Sf-9 insect cells. The protein was purified with a nickel column (GE Healthcare). The concentration of the protein was adjusted to 0.25-0.5 μg/ml and the protein was stored in a solution containing 50 mM TrisCl pH 8.0, 5 mM EDTA, 10% glycerol, and 15 mM DTT.
# The ATPase activity was determined as follows. 500 ng of the purified VCP was mixed with 100 μM [γ-32P]ATP (18.5 GBq/mmol) and the test substance in 20 μL of ATPase buffer (20 mM HEPES (pH7.4), 50 mM KCl, 5 mM MgCl2, 15 mM DTT), and incubated at 37° C. for 10 minutes.
# The enzyme reaction was stopped with addition of 200 μL of an ice-cold solution containing 7% TCA and 1 mM K2HPO4. 50μ of a solution containing 3.75% ammonium molybdate and 0.02M tungstate silicic/3 NH2SO4 was added, followed by 300 μL of n-butylacetic acid, and then the liberated phosphate was extracted into the organic layer. The reaction tube was centrifuged for 5 minutes at 20,000 g to separate the aqueous layer and the organic layer, 200 μL of the organic layer was taken, and the beta ray radiated from the liberated phosphate was quantified with liquid scintillation counter.
# By measuring the ATPase activity in the presence of the test substance at various concentrations, ATPase inhibitory activity of the test substance was measured. IC50 of the each test substance was calculated by applying the measured values to the equation below using GraphPad Prism (GraphPad Software).
# T1 sequence (Q01853 whole entry): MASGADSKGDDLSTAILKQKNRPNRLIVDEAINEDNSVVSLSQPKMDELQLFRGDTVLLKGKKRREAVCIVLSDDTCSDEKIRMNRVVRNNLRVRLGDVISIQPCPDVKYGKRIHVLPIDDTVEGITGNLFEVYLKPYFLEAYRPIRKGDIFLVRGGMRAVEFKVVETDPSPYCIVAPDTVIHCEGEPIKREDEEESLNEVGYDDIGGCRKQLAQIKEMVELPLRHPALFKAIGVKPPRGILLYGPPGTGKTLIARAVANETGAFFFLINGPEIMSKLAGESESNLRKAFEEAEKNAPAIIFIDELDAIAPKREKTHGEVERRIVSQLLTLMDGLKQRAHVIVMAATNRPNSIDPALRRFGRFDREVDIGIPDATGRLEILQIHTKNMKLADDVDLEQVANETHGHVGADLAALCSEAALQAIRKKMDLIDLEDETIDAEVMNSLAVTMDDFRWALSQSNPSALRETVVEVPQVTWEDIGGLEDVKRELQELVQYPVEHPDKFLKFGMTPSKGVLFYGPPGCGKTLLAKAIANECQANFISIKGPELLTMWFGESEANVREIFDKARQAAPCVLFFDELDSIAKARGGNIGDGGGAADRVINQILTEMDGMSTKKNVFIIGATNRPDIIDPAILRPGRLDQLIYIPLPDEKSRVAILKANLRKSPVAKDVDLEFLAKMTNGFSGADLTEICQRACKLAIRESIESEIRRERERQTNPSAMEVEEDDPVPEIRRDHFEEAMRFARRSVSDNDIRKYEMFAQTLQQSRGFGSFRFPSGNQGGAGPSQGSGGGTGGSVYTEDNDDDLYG
row,SMILES,IC50
1,"Nc1c(/N=N/c2ccc(-c3ccccc3-c3ccccc3)nc2)cc(S(N)(=O)=O)c2ccccc12 [Example 14, sodium salt]",> 10000 nM

# Same assay, conditions: compounds of Examples; ATPase inhibitory activity; 500 ng VCP, 100 μM ATP, 37° C., 10 minutes
row,SMILES,IC50
1,"Nc1c(/N=N/c2ccc(-c3c(OCCCO)ccc4c3sc3ccccc34)nc2)cc(S(=O)(=O)O)c2ccccc12 [Example 82, 4-amino-3-{6-[3-(3-hydroxypropoxy)dibenzothiophene-4-yl]pyridine-3-ylazo}naphthalene-1-sulfonic acid sodium salt]",289 nM
2,"Nc1c(/N=N/c2ccccc2OCc2ccccn2)cc(S(=O)(=O)O)c2ccccc12 [Example 140, 4-amino-3-[2-(pyridine-2-ylmethoxy)phenylazo]naphthalene-1-sulfonic acid sodium salt]",596 nM
3,"Nc1c(/N=N/c2cccc(Br)c2)cc(S(=O)(=O)O)c2ccccc12 [Example 109, 4-amino-3-(3-bromophenylazo)naphthalene-1-sulfonic acid sodium salt]",856 nM
4,"Nc1c(/N=N/c2ccc(-c3cncc4ccccc34)cc2)cc(S(=O)(=O)O)c2ccccc12 [Example 127, sodium salt]",295 nM
5,"Nc1c(/N=N/c2cccnc2)cc(S(=O)(=O)O)c2ccccc12 [Example 1, 4-amino-3-(pyridine-3-ylazo)naphthalene-1-sulfonic acid sodium salt]",1580 nM
6,"CCCOc1cccc(F)c1-c1ccc(/N=N/c2cc(S(=O)(=O)O)c3ccccc3c2N)cn1 [Example 56, 4-amino-3-[6-(2-fluoro-6-propoxyphenyl)pyridine-3-ylazo]naphthalene-1-sulfonic acid sodium salt]",246 nM
7,"Cc1cccc(C)c1-c1ccc(/N=N/c2cc(S(=O)(=O)O)c3ccccc3c2N)cn1 [Example 90, 4-amino-3-[6-(2,6-dimethylphenyl)pyridine-3-ylazo]naphthalene-1-sulfonic acid sodium salt]",112 nM
8,"Nc1c(/N=N/c2ccc(F)cc2Cl)cc(S(=O)(=O)O)c2ccccc12 [Example 119, 4-amino-3-(2-chloro-4-fluorophenylazo)naphthalene-1-sulfonic acid sodium salt]",737 nM
9,"Nc1c(/N=N/c2ccc(-c3cc(Cl)ccc3O)nc2)cc(S(=O)(=O)O)c2ccccc12 [Example 70, 4-amino-3-[6-(5-chloro-2-hydroxyphenyl)pyridine-3-ylazo]naphthalene-1-sulfonic acid sodium salt]",712 nM
10,"Nc1c(/N=N/c2ccc(-c3c(OCCCNC(=O)c4cccnc4Cl)ccc4c3sc3ccccc34)nc2)cc(S(=O)(=O)O)c2ccccc12 [Example 81, 4-amino-3-[6-(3-{3-[(2-chloropyridine-3-carbonyl)amino]propoxy}dibenzothiophene-4-yl)pyridine-3-ylazo]naphthalene-1-sulfonic acid sodium salt]",207 nM
11,"CC(C)Oc1ccc(-c2ccc(/N=N/c3cc(S(=O)(=O)O)c4ccccc4c3N)cn2)cc1 [Example 28, 4-amino-3-[6-(4-isopropoxyphenyl)pyridine-3-ylazo]naphthalene-1-sulfonic acid sodium salt]",416 nM
12,"Nc1c(/N=N/c2ccc(-c3cccc(CN4CCOCC4)c3)nc2)cc(S(=O)(=O)O)c2ccccc12 [Example 11, 4-amino-3-[6-(3-morpholine-4-ylmethylphenyl)pyridine-3-ylazo]naphthalene-1-sulfonic acid sodium salt]",426 nM
13,"Cc1cc(C=O)c(OC(C)C)c(-c2ccc(/N=N/c3cc(S(=O)(=O)O)c4ccccc4c3N)cn2)c1 [Example 91, 4-amino-3-[6-(3-formyl-2-isopropoxy-5-methylphenyl)pyridine-3-ylazo]naphthalene-1-sulfonic acid sodium salt]",212 nM
14,"Nc1c(/N=N/c2ccc(-c3cccc4c3Sc3ccccc3S4)nc2)cc(S(=O)(=O)O)c2ccccc12 [Example 76, 4-amino-3-(6-thianthrene-1-ylpyridine-3-ylazo)naphthalene-1-sulfonic acid sodium salt]",1410 nM
15,"Cc1ccc(/N=N/c2cc(S(=O)(=O)O)c3ccccc3c2N)cc1 [Example 122, 4-amino-3-p-tolylazonaphthalene-1-sulfonic acid sodium salt]",849 nM
16,"Nc1c(/N=N/c2ccc(-c3cccnc3)nc2)cc(S(=O)(=O)O)c2ccccc12 [Example 52, 4-amino-3-([2,3′]bipyridinyl-5-ylazo)naphthalene-1-sulfonic acid sodium salt]",1390 nM
17,"COC(=O)c1sccc1/N=N/c1cc(S(=O)(=O)O)c2ccccc2c1N [Example 146, methyl 3-(1-amino-4-sulfonaphthalene-2-ylazo)thiophene-2-carboxylate sodium salt]",1290 nM
18,"Cc1ccc(-c2ccc(/N=N/c3cc(S(=O)(=O)O)c4ccccc4c3N)cn2)cc1 [Example 8, 4-amino-3-(6-p-tolylpyridine-3-ylazo)naphthalene-1-sulfonic acid sodium salt]",430 nM
19,"Nc1c(/N=N/c2ccc3ncccc3c2)cc(S(=O)(=O)O)c2ccccc12 [Example 147, 4-amino-3-(quinoline-6-ylazo)naphthalene-1-sulfonic acid sodium salt]",502 nM

# Second part, the compound after the results:
row,IC50,SMILES
1,281 nM,"Nc1c(/N=N/c2ccc(OCc3cccnc3)nc2)cc(S(=O)(=O)O)c2ccccc12 [Example 3, 3-(2-pyridinomethoxy-5-pyridinoazo)-4-amino-1-naphthalenesulfonic acid sodium salt]"
2,540 nM,"N#Cc1ccc(/N=N/c2cc(S(=O)(=O)O)c3ccccc3c2N)cc1 [Example 107, 4-amino-3-(4-cyanophenylazo)naphthalene-1-sulfonic acid sodium salt]"
3,210 nM,"Nc1c(/N=N/c2ccc(-c3csc4ccccc34)nc2)cc(S(=O)(=O)O)c2ccccc12 [Example 41, 4-amino-3-(6-benzo[b]thiophene-3-ylpyridine-3-ylazo)naphthalene-1-sulfonic acid sodium salt]"
4,407 nM,"Nc1c(/N=N/c2ccc(OCC3CCCO3)nc2)cc(S(=O)(=O)O)c2ccccc12 (stereo not shown) [Example 4, 4-amino-3-[6-(tetrahydrofuran-2-ylmethoxy)pyridine-3-ylazo]-1-naphthalenesulfonic acid sodium salt]"
5,501 nM,"Nc1c(/N=N/c2cnc(-c3ccccc3)c(-c3ccccc3)c2)cc(S(=O)(=O)O)c2ccccc12 [Example 89, 4-amino-3-(5,6-diphenylpyridine-3-ylazo)naphthalene-1-sulfonic acid sodium salt]"
6,600 nM,"Nc1c(/N=N/c2cccc(OCc3ccncc3)c2)cc(S(=O)(=O)O)c2ccccc12 [Example 139, 4-amino-3-[3-(pyridine-4-ylmethoxy)phenylazo]naphthalene-1-sulfonic acid sodium salt]"
7,887 nM,"CCOC(=O)c1ccc(/N=N/c2cc(S(=O)(=O)O)c3ccccc3c2N)cc1 [Example 103, ethyl 4-(1-amino-4-sulfonaphthalene-2-ylazo)benzoate sodium salt]"
8,417 nM,"Cc1ccc(-c2ccc(/N=N/c3cc(S(=O)(=O)O)c4ccccc4c3N)cc2)cc1 [Example 125, 4-amino-3-(4′-methylbiphenyl-4-ylazo)naphthalene-1-sulfonic acid sodium salt]"
9,526 nM,"Nc1c(/N=N/c2ccc(Cl)c(Cl)c2)cc(S(=O)(=O)O)c2ccccc12 [Example 112, 4-amino-3-(3,4-dichlorophenylazo)naphthalene-1-sulfonic acid sodium salt]"
10,99 nM,"Nc1c(/N=N/c2c(Br)cc(Br)cc2Br)cc(S(=O)(=O)O)c2ccccc12 [Example 114, 4-amino-3-(2,4,6-tribromophenylazo)naphthalene-1-sulfonic acid sodium salt]"
11,260 nM,"Nc1c(/N=N/c2cccc(C(=O)c3ccccc3)c2)cc(S(=O)(=O)O)c2ccccc12 [Example 130, 4-amino-3-(3-benzoylphenylazo)naphthalene-1-sulfonic acid sodium salt]"
